Results from ChEMBL document CHEMBL1833947, “Synthesis and biological investigation of potential atypical antipsychotics with a tropane core. Part 1” (Eur J Med Chem, 2011).
Calls of active or inactive are those of the source. The calls are words filed in the database; no cut-off is given here.

Columns and labels:
[1] = tested on: Mus musculus; experiment: Antidepressant-like activity in Swiss albino mouse assessed as immobilization time at 2 mg/kg, sc after 30 mins by forced swim test; type: functional; details: route subcutaneous
[2] = tested on: Mus musculus; experiment: Antidepressant-like activity in Swiss albino mouse assessed as immobilization time at 1 mg/kg, sc after 30 mins by forced swim test; type: functional; details: route subcutaneous
[3] = tested on: Rattus norvegicus; experiment: Antipsychotic activity in 8-OH-DPAT-stimulated rat assessed as lower lip retractions at 0.1 mg/kg, iv administered 45 mins before 8-OH-DPAT challenge measured after 15 to 45 mins (reference value: 2.9 retractions); type: functional
[4] = tested on: Rattus norvegicus; experiment: Induction of 5HT1A receptor in rat assesses as lower lip retractions at 0.1 mg/kg, iv after 15 mins (reference value: 0.1 +/- 0.1 retractions); type: functional
[5] = species on record: Mus musculus; details: Swiss albino, 20 mg/kg
Description: Hypothermic effect in Swiss albino mouse assessed as change in body temperature at 20 mg/kg, ip measured after 30 mins

[6] = tested on: Rattus norvegicus; experiment: Antipsychotic activity in 8-OH-DPAT-stimulated rat assessed as lower lip retractions at 20 mg/kg, iv administered 45 mins before 8-OH-DPAT challenge measured after 15 to 45 mins (reference value: 2.9 retractions); type: functional
[7] = tested on: Rattus norvegicus; experiment: Induction of 5HT1A receptor in rat assesses as lower lip retractions at 20 mg/kg, iv after 15 mins (reference value: 0.1 +/- 0.1 retractions); type: functional
[8] = tested on: Rattus norvegicus; experiment: Antipsychotic activity in 8-OH-DPAT-stimulated rat assessed as lower lip retractions at 10 mg/kg, iv administered 45 mins before 8-OH-DPAT challenge measured after 15 to 45 mins (reference value: 2.9 retractions); type: functional
[9] = species on record: Mus musculus; details: Swiss albino, 20 mg/kg; remark: listed apart in the source
Description: Hypothermic effect in Swiss albino mouse assessed as change in body temperature at 20 mg/kg, ip measured after 30 mins in presence of 0.1 mg/kg, sc 5-HT1A antagonist WAY 100635

[10] = species on record: Mus musculus; details: Swiss albino, 5 mg/kg
Description: Hypothermic effect in Swiss albino mouse assessed as change in body temperature at 5 mg/kg, ip measured after 90 mins

[11] = species on record: Mus musculus; details: Swiss albino, 20 mg/kg; remark: listed apart in the source
Description: Hypothermic effect in Swiss albino mouse assessed as change in body temperature at 20 mg/kg, ip measured after 60 mins

[12] = species on record: Mus musculus; details: Swiss albino, 20 mg/kg; remark: listed apart in the source
Description: Hypothermic effect in Swiss albino mouse assessed as change in body temperature at 20 mg/kg, ip measured after 90 mins

[13] = species on record: Mus musculus; details: Swiss albino, 5 mg/kg; remark: listed apart in the source
Description: Hypothermic effect in Swiss albino mouse assessed as change in body temperature at 5 mg/kg, ip measured after 30 mins

[14] = tested on: Mus musculus; experiment: Anxiolytic-like activity in mouse assessed as number of punished crossing at 10 mg/kg, ip after 6 mins by four-plate test (reference value: 554 +/- 46 crossings); type: functional; details: route intraperitoneal
[15] = species on record: Mus musculus; details: Swiss albino, 5 mg/kg; remark: listed apart in the source
Description: Hypothermic effect in Swiss albino mouse assessed as change in body temperature at 5 mg/kg, ip measured after 120 mins

[16] = species on record: Mus musculus; details: Swiss albino, 5 mg/kg; remark: listed apart in the source
Description: Hypothermic effect in Swiss albino mouse assessed as change in body temperature at 5 mg/kg, ip measured after 60 mins

[17] = tested on: Rattus norvegicus; experiment: Induction of 5HT1A receptor in rat assesses as lower lip retractions at 10 mg/kg, iv after 15 mins (reference value: 0.1 +/- 0.1 retractions); type: functional
[18] = target: 5-hydroxytryptamine receptor 2A (Rattus norvegicus, UniProt P14842); experiment: Displacement of [3H]ketanserin from 5HT2A in rat brain cerebral cortex after 20 mins by scintillation counting; type: tissue-based
Chain of 5-hydroxytryptamine receptor 2A (P14842 whole entry): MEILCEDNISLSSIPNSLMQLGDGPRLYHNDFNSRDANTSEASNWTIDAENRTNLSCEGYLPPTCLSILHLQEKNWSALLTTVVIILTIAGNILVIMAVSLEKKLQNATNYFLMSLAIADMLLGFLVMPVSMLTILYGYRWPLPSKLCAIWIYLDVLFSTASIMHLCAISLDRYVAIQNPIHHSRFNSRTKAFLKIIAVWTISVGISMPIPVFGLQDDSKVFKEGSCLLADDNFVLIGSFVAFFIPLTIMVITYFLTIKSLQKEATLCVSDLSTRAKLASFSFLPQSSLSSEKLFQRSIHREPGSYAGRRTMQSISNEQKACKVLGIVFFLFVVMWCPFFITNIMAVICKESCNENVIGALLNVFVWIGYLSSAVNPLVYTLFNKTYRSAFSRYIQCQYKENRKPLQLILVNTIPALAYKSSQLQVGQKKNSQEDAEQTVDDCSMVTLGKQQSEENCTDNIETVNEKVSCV

[19] = species on record: Mus musculus; details: Swiss albino, 20 mg/kg; remark: listed apart in the source
Description: Hypothermic effect in Swiss albino mouse assessed as change in body temperature at 20 mg/kg, ip measured after 60 mins in presence of 0.1 mg/kg, sc 5-HT1A antagonist WAY 100635

[20] = target: T1, 5-hydroxytryptamine receptor 1A (Rattus norvegicus, UniProt P19327); experiment: Displacement of [3H]8OH-DPAT from 5HT1A in rat brain cerebral cortex after 15 mins by scintillation counting; type: tissue-based
T1 sequence (P19327 whole entry): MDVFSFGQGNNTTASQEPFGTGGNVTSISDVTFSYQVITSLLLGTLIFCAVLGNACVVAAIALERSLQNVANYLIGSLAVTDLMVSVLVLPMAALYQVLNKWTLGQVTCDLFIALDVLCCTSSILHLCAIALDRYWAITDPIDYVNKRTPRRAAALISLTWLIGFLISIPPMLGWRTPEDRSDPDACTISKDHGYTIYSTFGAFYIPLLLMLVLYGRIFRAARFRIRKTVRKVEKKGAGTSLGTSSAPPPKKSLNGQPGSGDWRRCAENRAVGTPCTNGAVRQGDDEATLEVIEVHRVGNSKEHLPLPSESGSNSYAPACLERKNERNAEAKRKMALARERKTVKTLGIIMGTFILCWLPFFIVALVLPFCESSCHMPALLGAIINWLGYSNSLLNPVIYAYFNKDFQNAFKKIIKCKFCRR

[21] = tested on: Mus musculus; experiment: Anxiolytic-like activity in mouse assessed as number of punished crossing at 10 mg/kg, ip after 30 mins by four-plate test (reference value: 554 +/- 46 crossings); type: functional; details: route intraperitoneal
[22] = target: D(2) dopamine receptor (Rattus norvegicus, UniProt P61169); experiment: Displacement of [3H]spiperone from dopamine D2 receptor in rat striatum tissue after 20 mins by scintillation counting; type: tissue-based
Chain of D(2) dopamine receptor (P61169 whole entry): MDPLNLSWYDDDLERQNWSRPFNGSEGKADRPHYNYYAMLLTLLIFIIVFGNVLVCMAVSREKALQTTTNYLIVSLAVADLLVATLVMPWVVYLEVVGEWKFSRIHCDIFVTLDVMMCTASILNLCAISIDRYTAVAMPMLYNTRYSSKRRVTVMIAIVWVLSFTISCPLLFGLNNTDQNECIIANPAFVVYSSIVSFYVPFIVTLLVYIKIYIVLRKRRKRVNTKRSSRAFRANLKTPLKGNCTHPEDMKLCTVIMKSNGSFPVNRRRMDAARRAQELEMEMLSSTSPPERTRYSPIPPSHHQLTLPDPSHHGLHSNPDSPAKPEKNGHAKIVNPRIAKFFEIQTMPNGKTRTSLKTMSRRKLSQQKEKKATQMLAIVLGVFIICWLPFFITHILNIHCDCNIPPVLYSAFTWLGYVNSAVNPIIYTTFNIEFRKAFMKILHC

[23] = tested on: Mus musculus; experiment: Antidepressant-like activity in Swiss albino mouse assessed as immobilization time at 20 mg/kg, ip after 30 mins by forced swim test; type: functional, organism-based; set-up: dose 20 mg/kg
[24] = species on record: Mus musculus; details: Swiss albino, 20 mg/kg; remark: listed apart in the source
Description: Hypothermic effect in Swiss albino mouse assessed as change in body temperature at 20 mg/kg, ip measured after 120 mins

[25] = tested on: Mus musculus; experiment: Antidepressant-like activity in Swiss albino mouse assessed as immobilization time at 10 mg/kg, ip after 30 mins by forced swim test; type: functional; details: route intraperitoneal
[26] = tested on: Mus musculus; experiment: Antipsychotic activity in mouse assessed as reversal of DOI-induced head twitches at 20 mg/kg, ip administered 30 mins before DOI challenge; type: functional; details: route intraperitoneal
[27] = species on record: Mus musculus; details: Swiss albino, 20 mg/kg; remark: listed apart in the source
Description: Hypothermic effect in Swiss albino mouse assessed as change in body temperature at 20 mg/kg, ip measured after 45 mins in presence of 5 mg/kg, sc 8-OH-DPAT

[28] = tested on: Mus musculus; experiment: Antipsychotic activity in mouse assessed as reversal of DOI-induced head twitches at 5 mg/kg, ip administered 30 mins before DOI challenge; type: functional; details: route intraperitoneal
[29] = species on record: Mus musculus; details: Swiss albino, 10 mg/kg
Description: Hypothermic effect in Swiss albino mouse assessed as change in body temperature at 10 mg/kg, ip measured after 30 mins

[30] = tested on: Mus musculus; experiment: Antipsychotic activity in mouse assessed as reversal of apomorphine-induced mesh climbing response at 50 mg/kg, ip administered 10 mins prior to apomorphine challenge measured after 30 mins; type: functional, organism-based; set-up: dose 50 mg/kg
[31] = species on record: Mus musculus; details: Swiss albino, 10 mg/kg; remark: listed apart in the source
Description: Hypothermic effect in Swiss albino mouse assessed as change in body temperature at 10 mg/kg, ip measured after 60 mins

[32] = tested on: Mus musculus; experiment: Antipsychotic activity in mouse assessed as reversal of apomorphine-induced mesh climbing response at 50 mg/kg, ip administered 20 mins prior to apomorphine challenge measured after 40 mins
[33] = species on record: Mus musculus; details: Swiss albino, 10 mg/kg; remark: listed apart in the source
Description: Hypothermic effect in Swiss albino mouse assessed as change in body temperature at 10 mg/kg, ip measured after 120 mins

[34] = species on record: Mus musculus; details: Swiss albino, 20 mg/kg; remark: listed apart in the source
Description: Hypothermic effect in Swiss albino mouse assessed as change in body temperature at 20 mg/kg, ip measured after 30 mins in presence of 5 mg/kg, sc 8-OH-DPAT

[35] = species on record: Mus musculus; details: Swiss albino, 10 mg/kg; remark: listed apart in the source
Description: Hypothermic effect in Swiss albino mouse assessed as change in body temperature at 10 mg/kg, ip measured after 90 mins

[36] = species on record: Mus musculus; details: Swiss albino, 20 mg/kg; remark: listed apart in the source
Description: Hypothermic effect in Swiss albino mouse assessed as change in body temperature at 20 mg/kg, ip measured after 60 mins in presence of 5 mg/kg, sc 8-OH-DPAT

[37] = species on record: Mus musculus; details: Swiss albino, 20 mg/kg; remark: listed apart in the source
Description: Hypothermic effect in Swiss albino mouse assessed as change in body temperature at 20 mg/kg, ip measured after 15 mins in presence of 5 mg/kg, sc 8-OH-DPAT

[38] = species on record: Mus musculus; details: Swiss albino, 5 mg/kg; remark: listed apart in the source
Description: Hypothermic effect in Swiss albino mouse assessed as change in body temperature at 5 mg/kg, ip measured after 60 mins in presence of 0.1 mg/kg, sc 5-HT1A antagonist WAY 100635

[39] = species on record: Mus musculus; details: Swiss albino, 2.5 mg/kg
Description: Hypothermic effect in Swiss albino mouse assessed as change in body temperature at 2.5 mg/kg, ip measured after 90 mins

[40] = species on record: Mus musculus; details: Swiss albino, 2.5 mg/kg; remark: listed apart in the source
Description: Hypothermic effect in Swiss albino mouse assessed as change in body temperature at 2.5 mg/kg, ip measured after 120 mins

[41] = tested on: Mus musculus; experiment: Anxiolytic-like activity in mouse assessed as number of punished crossing at 5 mg/kg, ip after 6 mins by four-plate test (reference value: 1514 +/- 73 crossings); type: functional; details: route intraperitoneal
[42] = tested on: Mus musculus; experiment: Anxiolytic-like activity in mouse assessed as number of punished crossing at 5 mg/kg, ip after 30 mins by four-plate test (reference value: 1514 +/- 73 crossings); type: functional; details: route intraperitoneal
[43] = species on record: Mus musculus; details: Swiss albino, 2.5 mg/kg; remark: listed apart in the source
Description: Hypothermic effect in Swiss albino mouse assessed as change in body temperature at 2.5 mg/kg, ip measured after 30 mins

[44] = tested on: Mus musculus; experiment: Antipsychotic activity in mouse assessed as reversal of DOI-induced head twitches at 10 mg/kg, ip administered 30 mins before DOI challenge; type: functional; details: route intraperitoneal
[45] = tested on: Mus musculus; experiment: Antidepressant-like activity in Swiss albino mouse assessed as immobilization time at 5 mg/kg, ip after 30 mins by forced swim test; type: functional, organism-based; set-up: dose 5 mg/kg
[46] = species on record: Mus musculus; details: Swiss albino, 5 mg/kg; remark: listed apart in the source
Description: Hypothermic effect in Swiss albino mouse assessed as change in body temperature at 5 mg/kg, ip measured after 30 mins in presence of 0.1 mg/kg, sc 5-HT1A antagonist WAY 100635

[47] = tested on: Mus musculus; experiment: Antidepressant-like activity in Swiss albino mouse assessed as immobilization time at 2.5 mg/kg, ip after 30 mins by forced swim test; type: functional, organism-based; set-up: dose 2.5 mg/kg
[48] = tested on: Rattus norvegicus; experiment: Antipsychotic activity in 8-OH-DPAT-stimulated rat assessed as lower lip retractions at 5 mg/kg, iv administered 45 mins before 8-OH-DPAT challenge measured after 15 to 45 mins (reference value: 2.9 retractions); type: functional
[49] = tested on: Rattus norvegicus; experiment: Induction of 5HT1A receptor in rat assesses as lower lip retractions at 5 mg/kg, iv after 15 mins (reference value: 0.1 +/- 0.1 retractions); type: functional
[50] = species on record: Mus musculus; details: Swiss albino, 2.5 mg/kg; remark: listed apart in the source
Description: Hypothermic effect in Swiss albino mouse assessed as change in body temperature at 2.5 mg/kg, ip measured after 60 mins

## Br.CCCN(CCC)C1CCc2cccc(O)c2C1 (stereo not drawn)
[1]
  Activity: 57%
[2]
  Activity: 45%

## COc1ccccc1N1CCN(CCN(C(=O)C2CCCCC2)c2ccccn2)CC1.Cl.Cl.Cl
[3]
  Activity: 0.3
[4]
  Activity: 0

## O=C(N[C@H]1CC2CC[C@H](C1)N2Cc1ccco1)c1ccc2ccccc2c1 (single isomer, unassigned)
[5]
  deltaT: -1.3 °C
[6]
  Activity: 2
[7]
  Activity: 0.6
[8]
  Activity: 2.7
[9]
  deltaT: -1.2 °C
[10]
  deltaT: 0.1 °C
[11]
  deltaT: -0.8 °C
[12]
  deltaT: -0.4 °C
[13]
  deltaT: -0.2 °C
[14]
  Activity: 233
[15]
  deltaT: 0.1 °C
[16]
  deltaT: 0.1 °C
[17]
  Activity: 0.1
[18]
  Ki: 24.1 nM
[19]
  deltaT: -1.1 °C
[20]
  Ki: 2800 nM
[21]
  Activity: 566
[22]
  Ki: 203 nM
[23]
  Activity: inactive
[24]
  deltaT: -0.2 °C
[25]
  Activity: 9%

## COc1cc(N)c(Cl)cc1C(=O)N[C@@H]1CC2CC[C@H](C1)N2CC1CCCO1 (single isomer, unassigned)
[26]
  Activity: 92%
[27]
  deltaT: -1.6 °C
[28]
  Activity: 63%
[5]
  deltaT: -0.8 °C
[29]
  deltaT: -0.2 °C
[30]
  Activity: Active
[6]
  Activity: 2.4
[7]
  Activity: 0.5
[8]
  Activity: 2.4
[10]
  deltaT: 0 °C
[31]
  deltaT: 0 °C
[32]
  Activity: Active
[33]
  deltaT: 0 °C
[11]
  deltaT: -0.3 °C
[12]
  deltaT: -0.1 °C
[13]
  deltaT: -0.1 °C
[34]
  deltaT: -2.9 °C
[15]
  deltaT: 0 °C
[16]
  deltaT: -0.1 °C
[17]
  Activity: 0.3
[18]
  Ki: 6.2 nM
[20]
  Ki: 5700 nM
[35]
  deltaT: -0.1 °C
[36]
  deltaT: -0.6 °C
[22]
  Ki: 103 nM
[37]
  deltaT: -2.9 °C
[24]
  deltaT: -0.1 °C

## O=C(N[C@@H]1CC2CC[C@H](C1)N2Cc1ccccc1)c1ccc2ccccc2c1 (single isomer, unassigned)
[26]
  Activity: 100%
[38]
  deltaT: -0.9 °C
[28]
  Activity: 81%
[39]
  deltaT: -0.1 °C
[40]
  deltaT: 0 °C
[41]
  Activity: 15
[42]
  Activity: 321
[6]
  Activity: 2.6
[7]
  Activity: 0.1
[8]
  Activity: 2.6
[10]
  deltaT: -0.6 °C
[13]
  deltaT: -1.5 °C
[43]
  deltaT: -0.2 °C
[15]
  deltaT: -0.5 °C
[44]
  Activity: 95%
[16]
  deltaT: -0.9 °C
[17]
  Activity: 0.2
[18]
  Ki: 2.5 nM
[45]
  Activity: inactive
[46]
  deltaT: -1.3 °C
[47]
  Activity: inactive
[48]
  Activity: 2.7
[20]
  Ki: 304 nM
[22]
  Ki: 82.4 nM
[49]
  Activity: 0.1
[50]
  deltaT: 0.1 °C
